Here are results for 16 molecules from US12404261B2, “Compounds and compositions for treating conditions associated with cGAS” (Novartis AG, priority 2020, dated 2025).

In this assay the target is human truncated cGAS enzyme (147-522 human cGAS) (Homo sapiens (Human), UniProt Q8N884). Nature of the assay: Quantification of cGAS protein inhibition (cGAMP formation measured by LC-MS/MS). Format: biochemical. The essentials:
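Human cGAS 147-522 (30 nM) in Tris pH 7.5, NaCl, MgCl2, ZnCl2, Tween 20, started with 5 μM ISD 45 bp dsDNA, 0.5 mM GTP and 0.5 mM ATP. Incubated 1 h at room temperature, then quenched with acetonitrile/TFA. cGAMP quantified by LC-MS/MS against a labelled cGAMP internal standard; IC50 from ratio versus compound concentration.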

The mark [1] stands for this setting: reported for the potential mixture of co-existing tautomers and/or racemates.
The mark [2] stands for this setting: reported for the potential mixture in solution of co-existing tautomers and/or racemates.

Chain of human truncated cGAS enzyme (147-522 human cGAS) (Q8N884 147-522): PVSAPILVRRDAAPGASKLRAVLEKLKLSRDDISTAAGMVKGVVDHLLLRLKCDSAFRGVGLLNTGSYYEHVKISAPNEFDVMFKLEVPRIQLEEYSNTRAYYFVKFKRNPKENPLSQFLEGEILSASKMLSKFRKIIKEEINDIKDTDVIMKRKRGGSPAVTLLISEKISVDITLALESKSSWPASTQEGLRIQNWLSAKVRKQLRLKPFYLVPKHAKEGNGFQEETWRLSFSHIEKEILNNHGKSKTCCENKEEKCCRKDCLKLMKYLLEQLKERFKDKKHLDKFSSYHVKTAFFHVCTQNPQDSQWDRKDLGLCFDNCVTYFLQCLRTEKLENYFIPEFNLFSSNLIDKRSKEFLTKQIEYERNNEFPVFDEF

On to `COCC(c1nnc(-c2c(-c3cn[nH]c3)c3cc(OC)c(Cl)c(F)c3n2C)[nH]1)N(C)C` (stereo not shown) [Example 81, 1-(5-(6-chloro-7-fluoro-5-methoxy-1-methyl-3-(1H-pyrazol-4-yl)-1H-indol-2-yl)-4H-1,2,4-triazol-3-yl)-2-methoxy-N,N-dimethylethan-1-amine], for which, under setting [1], the IC50 (as a rule, the concentration at which inhibition is half-maximal) turned out to be 0.091 µM.
Still for that read-out and setting: the same measure for `COc1cc2c(-n3ccnc3)c(-c3nnc(C(=O)N4CCOCC4)[nH]3)n(C)c2c(F)c1Cl` [Example 42, (5-(6-chloro-7-fluoro-3-(1H-imidazol-1-yl)-5-methoxy-1-methyl-1H-indol-2-yl)-4H-1,2,4-triazol-3-yl)(morpholino)methanone]: 0.063 µM; for `COCC(O)c1nnc(-c2c(-n3ccnc3)c3cc(OC)c(Cl)c(C#N)c3n2C)[nH]1` (stereo not shown) [Example 53, 6-chloro-2-(5-(1-hydroxy-2-methoxyethyl)-4H-1,2,4-triazol-3-yl)-3-(1H-imidazol-1-yl)-5-methoxy-1-methyl-1H-indole-7-carbonitrile]: 0.066 µM; for `Cn1c(-c2nnc(C(F)(F)F)[nH]2)c(-c2cn[nH]c2)c2cc(C#N)c(Cl)c(F)c21` [Example 8, 6-chloro-7-fluoro-1-methyl-3-(1H-pyrazol-4-yl)-2-(5-(trifluoromethyl)-4H-1,2,4-triazol-3-yl)-1H-indole-5-carbonitrile]: 0.134 µM.
`COc1cc2c(-c3cn[nH]c3)c(-c3nnc(N(C)CCO)[nH]3)n(C)c2c(F)c1Cl` [Example 63, 2-((5-(6-chloro-7-fluoro-5-methoxy-l-methyl-3-(1H-pyrazol-4-yl)-1H-indol-2-yl)-4H-1,2,4-triazol-3-yl)(methyl)amino)ethan-1-ol]: the IC50 under setting [1] came to 0.054 µM.
With `COC[C@@H](O)c1nnc(-c2c(-n3ccnc3)c3cc(OC)c(Cl)c(F)c3n2C)[nH]1` [Example 83, (S)-1-(5-(6-chloro-7-fluoro-3-(1H-imidazol-1-yl)-5-methoxy-1-methyl-1H-indol-2-yl)-4H-1,2,4-triazol-3-yl)-2-methoxyethan-1-ol], under setting [1], the half-maximal inhibitory concentration (IC50) came out at 0.078 µM.
Consider `COc1cc2c(-n3ccnc3)c(-c3nnc(CS(C)(=O)=O)[nH]3)n(C)c2c(F)c1Cl` [Example 56, 6-Chloro-7-fluoro-3-(1H-imidazol-1-yl)-5-methoxy-1-methyl-2-(5-((methylsulfonyl)methyl)-4H-1,2,4-triazol-3-yl)-1H-indole], for which the IC50 under setting [1] came out at 0.056 µM.
Take `COc1cc2c(-n3ccnc3)c(-c3nnc(C(C)N4CCOCC4)[nH]3)n(C)c2c(F)c1Cl` (stereo not shown) [Example 121, 4-(1-(5-(6-chloro-7-fluoro-3-(1H-imidazol-1-yl)-5-methoxy-1-methyl-1H-indol-2-yl)-4H-1,2,4-triazol-3-yl)ethyl)morpholine]: the IC50 under setting [2] came out at 0.08 µM.
Take `COc1cc2c(-c3cn[nH]c3)c(-c3nnc(C(N)=O)[nH]3)[nH]c2cc1Cl` [Example 31, 5-(6-chloro-5-methoxy-3-(1H-pyrazol-4-yl)-1H-indol-2-yl)-4H-1,2,4-triazole-3-carboxamide]: the IC50 under setting [1] is 0.049 µM.
Turning to `COCC(c1nnc(-c2c(-n3ccnc3)c3cc(OC)c(Cl)c(F)c3n2C)[nH]1)n1ccnc1` (stereo not shown) [Example 100, 2-(5-(1-(1H-imidazol-1-yl)-2-methoxyethyl)-4H-1,2,4-triazol-3-yl)-6-chloro-7-fluoro-3-(1H-imidazol-1-yl)-5-methoxy-1-methyl-1H-indole], the IC50 under setting [2] stood at 0.065 µM.
With `COC[C@H](O)c1nnc(-c2c(-n3ccnc3)c3cc(OC)c(Cl)c(F)c3n2C)[nH]1` [Example 84, (R)-1-(5-(6-chloro-7-fluoro-3-(1H-imidazol-1-yl)-5-methoxy-1-methyl-1H-indol-2-yl)-4H-1,2,4-triazol-3-yl)-2-methoxyethan-1-ol], the IC50 under setting [1] worked out at 0.063 µM.
On the same count and under the same terms, the same measure for `COCCn1c(-c2nnc(C(F)(F)F)[nH]2)c(-c2cn[nH]c2)c2cc(OC)c(Cl)cc21` [Example 26, 6-chloro-5-methoxy-1-(2-methoxyethyl)-3-(1H-pyrazol-4-yl)-2-(5-(trifluoromethyl)-4H-1,2,4-triazol-3-yl)-1H-indole]: 1.81 µM; for `COc1cc2c(-n3ccnc3)c(-c3nnc(F)[nH]3)n(C)c2c(F)c1Cl` [Example 86, 6-chloro-7-fluoro-2-(5-fluoro-4H-1,2,4-triazol-3-yl)-3-(1H-imidazol-1-yl)-5-methoxy-1-methyl-1H-indole]: 0.264 µM.
For the molecule `COc1cc2c(-c3cn[nH]c3)c(-c3nnc(C(F)(F)F)[nH]3)n(C)c2c(F)c1Cl` [Example 1, 6-Chloro-7-fluoro-5-methoxy-1-methyl-3-(1H-pyrazol-4-yl)-2-(5-(trifluoromethyl)-4H-1,2,4-triazol-3-yl)-1H-indole], the IC50 under setting [1] came out at 0.074 µM.
Still for that read-out and setting: the value for `COc1cc2c(-n3ccnc3)c(-c3nnc(C(=O)N4CCC(O)C4)[nH]3)n(C)c2c(F)c1Cl` (stereo not shown) [Example 43, (5-(6-chloro-7-fluoro-3-(1H-imidazol-1-yl)-5-methoxy-1-methyl-1H-indol-2-yl)-4H-1,2,4-triazol-3-yl)(3-hydroxypyrrolidin-1-yl)methanone] was 0.061 µM.
For `COc1cc2c(-n3ccnc3)c(-c3nnc(C(C)N4CC5(COC5)C4)[nH]3)n(C)c2c(F)c1Cl` (stereo not shown) [Example 130, 6-(1-(5-(6-chloro-7-fluoro-3-(1H-imidazol-1-yl)-5-methoxy-1-methyl-1H-indol-2-yl)-4H-1,2,4-triazol-3-yl)ethyl)-2-oxa-6-azaspiro[3.3]heptane], the IC50 under setting [2] was found to be 0.268 µM.
